The target of the data set is T1, chymase purified from human skin mast cell (native, Calbiochem) (Homo sapiens, UniProt P23946).
T1 construct: Here, the native is chymase purified from human skin mast cell; purchased Calbiochem; host or cells: human skin mast cell (tissue-derived)
T1 sequence (P23946 22-247): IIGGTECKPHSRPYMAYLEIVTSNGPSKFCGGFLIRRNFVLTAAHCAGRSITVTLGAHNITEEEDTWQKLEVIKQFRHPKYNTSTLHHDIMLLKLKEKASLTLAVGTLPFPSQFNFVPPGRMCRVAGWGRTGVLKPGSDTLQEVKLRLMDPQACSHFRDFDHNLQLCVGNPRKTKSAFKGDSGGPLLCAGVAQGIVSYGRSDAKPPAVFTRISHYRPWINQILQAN
In words: chymase enzyme activity inhibition, native substrate angiotensin I (His-Leu fluorescence). The data set is classed as biochemical. The settings on record: angiotensin I as substrate, mean of 2 or 3 measurements. The method, then:
A second method of evaluation employs a native substrate. A useful native substrate for chymase is angiotensin I. Here, His-Leu, a peptide fragment released upon degradation of angiotensin I, is fluorescently derivatized, and the fluorescence intensity therefrom is quantified.
In the assay, an enzyme reaction is carried out in 50 μL of solution C. First, 0.3-0.75 ng of chymase (recombinant, manufactured by SIGMA; or native, manufactured by Calbiochem) is diluted in solution C to obtain 5 μL chymase solution. Each nucleic acid is prepared in solution C to obtain 25 μL solutions. 5 μL of each chymase dilution and 25 μL of each nucleic acid solution are mixed, and then the mixture is incubated at 37° C. for 5 minutes. Separately, 20 μL of 125 μM angiotensin I (manufactured by Peptide Institute, Inc.) is prepared in solution C and incubated at 37° C. for 5 minutes. The angiotensin I solution is added to the mixture of chymase and nucleic acid, and the enzyme reaction is initiated. After the reaction was allowed to proceed at 37° C. for 90 minutes, 25 μL of ice-cooled 30% trichloroacetic acid solution is added to terminate the reaction. The entire mixture is centrifuged at 4° C., 14000 rpm for 10 minutes, and 30 μL of the resulting supernatant is used for the subsequent reaction for fluorescent derivatization.
After 30 μL of the supernatant is added to a 96-well plate (Black, manufactured by Costar), 15 μL of 2% o-phthalaldehyde (manufactured by SIGMA) solution in methanol and 170 μL of 0.3M NaOH solution are mixed in each well, and the plate is allowed to stand at room temperature for 10 minutes. Subsequently, 25 μL of 3M HCl solution is added to terminate the reaction. The plate is set to the microplate reader SpectraMax190 (manufactured by Molecular Devices Corporation), and the fluorescence intensity is determined at an excitation wavelength of 355 nm and a fluorescence wavelength of 460 nm.
For control, samples are treated and analyzed in the same manner in two cases: use of SEQ ID NO: 58 (negative control) and use of chymostatin, a known chymotrypsin-like serine protease inhibitor (positive control). In both cases, fluorescence intensity obtained at 0 minute reaction time serves as a blank determination. Taking the fluorescence intensity detected with the addition of an equal volume of solution C, in place of each nucleic acid, in the chymase enzyme reaction as 100%, the inhibitory rate for each test substance is calculated, and the inhibitor concentration required to cause a 50% inhibition of the enzyme activity (IC50) is determined.
Whether the nucleic acids shown by SEQ ID NO: 9 and 10 inhibit the enzyme activity of chymase was determined by the following method. Angiotensin I is converted by chymase to angiotensin II, during which a peptide fragment His-Leu is released. Since the peptide His-Leu is fluorescently derivatized by o-phthalaldehyde, its fluorescence intensity can be quantitatively measured.
The total volume of solution for an enzyme reaction in the assay was set to 50 μL, and the reaction was performed in solution C buffer. At first, native (manufactured by Calbiochem) was diluted with solution C to give 5 μL thereof. Here, the native is chymase purified from human skin mast cell. The nucleic acid was serially diluted with solution C at a concentration of 0.0027-2 μM to give 25 μL thereof. The chymase solution (5 μL) and the nucleic acid solution (25 μL) were mixed, and the mixture was incubated at 37° C. for 5 min. On the other hand, […] angiotensin I (manufactured by PEPTIDE INSTITUTE, INC.) was prepared in solution C to give 20 μL thereof, which was incubated at 37° C. for 5 min. The angiotensin I solution was added to a mixture of chymase and nucleic acid to start an enzyme reaction. The final chymase concentration of the reaction solution was 0.5 nM, and the final substrate concentration was 50 μM. […]

The mark [1] stands for this setting: Table 3, >1 = no inhibitory activity up to 1 μM.

For the substance “11 (GGGUCAGAUGAUCGGACAUAACAUUGUUGGGGUGUCAAGGCCC; 2'-fluoro at CU, RNA at AG, backbone not given here) [compound 11]”, under setting [1], the IC50 (in general, the concentration that inhibits the measured activity by half) worked out at 54.7 nM.
Under setting [1], “12 (GACAUAACAUUGUUGGGGUGUC; 2'-fluoro at CU, RNA at AG, backbone not given here) [compound 12]” registered an IC50 of more than 1000 nM.
“13 (GGACAUAACAUUGUUGGGGUGUCAAGG; 2'-fluoro at CU, RNA at AG, backbone not given here) [compound 13]” returned an IC50 under setting [1] of more than 1000 nM.
Turning to “14 (GGCAGAUGAUCGGACAUAACAUUGUUGGGGUGUCAAGCC; 2'-fluoro at CU, RNA at AG, backbone not given here) [compound 14]”, the IC50 under setting [1] was determined as 6.8 nM.
Under setting [1], “15 (GAUGAUCGGACAUAACAUUGUUGGGGUGUCAAGCC; 2'-fluoro at CU, RNA at AG, backbone not given here) [compound 15]” displayed an IC50 of 1.4 nM.
For the substance “16 (GGCAGAUGAUCGGACAUAACAUUGUUGGGGUGUCAA; 2'-fluoro at CU, RNA at AG, backbone not given here) [compound 16]”, the IC50 under setting [1] is 2 nM.
For “17 (GAUGAUCGGACAUAACAUUGUUGGGGUGUCAA; 2'-fluoro at CU, RNA at AG, backbone not given here) [compound 17]”, the IC50 came out at 1.4 nM under setting [1], 1.4 nM (Table 4) and 1.4 nM (Table 6).
Substance “17(1) (GAUGAUCGGACAUAACAUUGUUGGGGUGUCAA; 2'-O-methyl, idT end and other modifications, positions not given here)” displayed an IC50 (Table 4) of 44.4 nM.
As for “17(2) (GAUGAUCGGACAUAACAUUGUUGGGGUGUCAA; aptamer; 2'-O-methyl, idT end and other modifications, positions not given here)”, for the setting “Table 4”, the IC50 was determined as 0.21 nM.
For “17(3) (GAUGAUCGGACAUAACAUUGUUGGGGUGUCAA; aptamer; 2'-O-methyl, idT end and other modifications, positions not given here)”, for the setting “Table 4”, inhibition was half-maximal at 5.66 nM (IC50).
Substance “17(4) (GAUGAUCGGACAUAACAUUGUUGGGGUGUCAA; aptamer; 2'-O-methyl, idT end and other modifications, positions not given here)” returned an IC50 (Table 4) of 0.2 nM.
As to “17(5) (GAUGAUCGGACAUAACAUUGUUGGGGUGUCAA; aptamer; 2'-O-methyl, idT end and other modifications, positions not given here)”, where the note is “Table 4”, the IC50 stood at 0.17 nM.
Substance “17(6) (GAUGAUCGGACAUAACAUUGUUGGGGUGUCAA; aptamer; 2'-O-methyl, idT end and other modifications, positions not given here)” came in with an IC50 (Table 4) of 0.14 nM.
Still for that read-out and setting: the value for “17(7) (GAUGAUCGGACAUAACAUUGUUGGGGUGUCAA; aptamer; 2'-O-methyl, idT end and other modifications, positions not given here)” was 0.17 nM.
The same measure, in the same setting: the value for “17(8) (GAUGAUCGGACAUAACAUUGUUGGGGUGUCAA; aptamer; 2'-O-methyl, idT end and other modifications, positions not given here)” was 0.13 nM; that for “17(9) (GAUGAUCGGACAUAACAUUGUUGGGGUGUCAA; aptamer; 2'-O-methyl, idT end and other modifications, positions not given here)” was 0.16 nM.
“17(10) (GAUGAUCGGACAUAACAUUGUUGGGGUGUCAA; aptamer; 2'-O-methyl, idT end and other modifications, positions not given here)”: the IC50 (Table 4) stood at 0.13 nM.
As to “17(11) (GAUGAUCGGACAUAACAUUGUUGGGGUGUCAA; aptamer; 2'-O-methyl, idT end and other modifications, positions not given here)”, for the setting “Table 4”, the IC50 was found to be 0.14 nM.
Substance “17(15) (GAUGAUCGGACAUAACAUUGUUGGGGUGUCAA; aptamer; 2'-O-methyl, idT end and other modifications, positions not given here)” had an IC50 (Table 4) of 0.13 nM.

For the origin of these results see patent publication US11639503B2, “Anti-chymase aptamer and use for same” (RIBOMIC INC., priority 2017, dated 2023).
